Reference: PubChem BioAssay AID1919007 (Molecular Pharmacology Branch, DTP, NCI, 2023)
“And” between values parts separate entries of the source, which are not always exact repeats. Equal entries are not always repeated.

System: A498 complex spheroids with HUVEC/MSC, growth
Assay: Anticancer human tumor A498 cell line growth inhibition [AhR];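 also: seven day exposure starting three days after spheroid seeding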;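 as to viability, T/C: luminescence signal used as a surrogate for viable cells; luminescence viability scaled so 100% equals DMSO vehicle wells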
Details: for viability, T/C: stronger effect = lower value; active = viability on the fitted dose curve at most 10% of control; inactive = the rest
How it was run: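 Agents were dosed in half-log steps down from roughly clinical Cmax, or from 10 microM where Cmax was unknown, alone and with AhR antagonists. Read-out: percent test/control growth of tumor spheroids containing HUVEC and MSC stromal cells.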

[1] = curve of first compound, second compound 0.1 µM
[2] = curve of first compound, second compound 0.316 µM
[3] = curve of first compound, second compound 1 µM
[4] = curve of first compound, second compound 3.16 µM
[5] = curve of first compound, second compound 10 µM
[6] = second compound 0.1 µM, first compound 0.0316 µM
[7] = second compound 0.1 µM, first compound 0.1 µM
[8] = second compound 0.316 µM, first compound 0.0316 µM
[9] = second compound 0.316 µM, first compound 0.1 µM
[10] = second compound 1 µM, first compound 0.0316 µM
[11] = second compound 1 µM, first compound 0.1 µM
[12] = second compound 3.16 µM, first compound 0.0316 µM
[13] = second compound 3.16 µM, first compound 0.1 µM
[14] = second compound 10 µM, first compound 0.0316 µM
[15] = second compound 10 µM, first compound 0.1 µM
[16] = second compound 0.1 µM, first compound 0.316 µM
[17] = second compound 0.1 µM, first compound 1 µM
[18] = second compound 0.1 µM, first compound 3.16 µM
[19] = second compound 0.1 µM, first compound 10 µM
[20] = second compound 0.316 µM, first compound 0.316 µM
[21] = second compound 0.316 µM, first compound 1 µM
[22] = second compound 0.316 µM, first compound 3.16 µM
[23] = second compound 0.316 µM, first compound 10 µM
[24] = second compound 1 µM, first compound 0.316 µM
[25] = second compound 1 µM, first compound 1 µM
[26] = second compound 1 µM, first compound 3.16 µM
[27] = second compound 1 µM, first compound 10 µM
[28] = second compound 3.16 µM, first compound 0.316 µM
[29] = second compound 3.16 µM, first compound 1 µM
[30] = second compound 3.16 µM, first compound 3.16 µM
[31] = second compound 3.16 µM, first compound 10 µM
[32] = second compound 10 µM, first compound 0.316 µM
[33] = second compound 10 µM, first compound 1 µM
[34] = second compound 10 µM, first compound 3.16 µM
[35] = second compound 10 µM, first compound 10 µM

Cn1ncnc1C1c2n[nH]c(=O)c3cc(F)cc(c23)NC1c1ccc(F)cc1 (centres undefined) + Cc1cncc(-c2nc(NCCc3c[nH]c4ccccc34)c3ncn(C(C)C)c3n2)c1
active: viability, T/C (second compound 10 µM, first compound 0.000316 µM) 5.06% | viability, T/C (second compound 10 µM, first compound 0.001 µM) 6.23% | viability, T/C (second compound 10 µM, first compound 0.00316 µM) 6.28% | viability, T/C (second compound 10 µM, first compound 0.01 µM) 7.11% | viability, T/C [14] 6.12% | viability, T/C [15] 8.13%
inactive: viability, T/C (second compound 0.1 µM, first compound 0.000316 µM) 96.5% | viability, T/C (second compound 0.1 µM, first compound 0.001 µM) 96.6% | viability, T/C (second compound 0.1 µM, first compound 0.00316 µM) 96.6% | viability, T/C (second compound 0.1 µM, first compound 0.01 µM) 89% | viability, T/C [6] 87% | viability, T/C [7] 94.1% | viability, T/C (second compound 0.316 µM, first compound 0.000316 µM) 97.1% | viability, T/C (second compound 0.316 µM, first compound 0.001 µM) 99.2% | viability, T/C (second compound 0.316 µM, first compound 0.00316 µM) 92.9% | viability, T/C (second compound 0.316 µM, first compound 0.01 µM) 92.3% | viability, T/C [8] 95.2% | viability, T/C [9] 92.3% | viability, T/C (second compound 1 µM, first compound 0.000316 µM) 88.4% | viability, T/C (second compound 1 µM, first compound 0.001 µM) 98.9% | viability, T/C (second compound 1 µM, first compound 0.00316 µM) 91.2% | viability, T/C (second compound 1 µM, first compound 0.01 µM) 84.4% | viability, T/C [10] 85.5% | viability, T/C [11] 89.8% | viability, T/C (second compound 3.16 µM, first compound 0.000316 µM) 60.6% | viability, T/C (second compound 3.16 µM, first compound 0.001 µM) 63.6% | viability, T/C (second compound 3.16 µM, first compound 0.00316 µM) 65% | viability, T/C (second compound 3.16 µM, first compound 0.01 µM) 70.1% | viability, T/C [12] 59.8% | viability, T/C [13] 67.8%
< 0.316 nM: IC50 [5]
> 100 nM: IC50 [1] | IC50 [2] | IC50 [3] | IC50 [4]

CC1COCCN1c1cc(C2(S(C)(=N)=O)CC2)nc(-c2ccnc3[nH]ccc23)n1 (centres undefined) + CC(CO)NC(=O)c1cc(-c2ccc(Cl)cc2)nn(-c2cnn(C)c2)c1=O
inactive: viability, T/C [6] 96.6% | viability, T/C [7] 94.9% | viability, T/C [16] 85.2% | viability, T/C [17] 66% | viability, T/C [18] 34.2% | viability, T/C [19] 18.2% | viability, T/C [8] 88.7% | viability, T/C [9] 89.6% | viability, T/C [20] 84% | viability, T/C [21] 65.1% | viability, T/C [22] 30.2% | viability, T/C [23] 19.7% | viability, T/C [10] 84.3% | viability, T/C [11] 86.8% | viability, T/C [24] 87% | viability, T/C [25] 53.5% | viability, T/C [26] 30.6% | viability, T/C [27] 17.1% | viability, T/C [12] 80.6% | viability, T/C [13] 81.8% | viability, T/C [28] 78.5% | viability, T/C [29] 52.1% | viability, T/C [30] 29.1% | viability, T/C [31] 16.5% | viability, T/C [14] 70.1% | viability, T/C [15] 65.7% | viability, T/C [32] 62.8% | viability, T/C [33] 46.9% | viability, T/C [34] 25.8% | viability, T/C [35] 17.7%
1280 nM: IC50 [3]
1640 nM: IC50 [2]
1770 nM: IC50 [1]
1190 nM: IC50 [4]
784 nM: IC50 [5]

Nc1ccn(C2OC(CO)C(O)C2(F)F)c(=O)n1 (centres undefined)
< 31.6 nM: IC50 (curve of compound)
inactive: viability, T/C (compound 0.0316 µM) 30.9% and 36.6% and 26.1% | viability, T/C (compound 0.1 µM) 35.4% and 37.9% and 25.6% | viability, T/C (compound 0.316 µM) 50.1% and 45.6% and 30.7% | viability, T/C (compound 1 µM) 43% and 49.6% and 32.6% | viability, T/C (compound 3.16 µM) 40.7% and 51.3% and 33% | viability, T/C (compound 10 µM) 42.1% (2×) and 29.6%

COc1cc(Nc2ncc3c(n2)-c2ccc(Cl)cc2C(c2c(F)cccc2OC)=NC3)ccc1C(=O)O + CC(CO)NC(=O)c1cc(-c2ccc(Cl)cc2)nn(-c2cnn(C)c2)c1=O
inactive: viability, T/C [6] 62.6% | viability, T/C [7] 69.4% | viability, T/C [16] 63.5% | viability, T/C [17] 50.2% | viability, T/C [18] 45.3% | viability, T/C [19] 33.2% | viability, T/C [8] 70% | viability, T/C [9] 67.9% | viability, T/C [20] 64.5% | viability, T/C [21] 50.7% | viability, T/C [22] 43.3% | viability, T/C [23] 32.3% | viability, T/C [10] 60.1% | viability, T/C [11] 67.5% | viability, T/C [24] 61.1% | viability, T/C [25] 47% | viability, T/C [26] 41.5% | viability, T/C [27] 33.5% | viability, T/C [12] 55.1% | viability, T/C [13] 59.9% | viability, T/C [28] 59.1% | viability, T/C [29] 47.2% | viability, T/C [30] 42.2% | viability, T/C [31] 30.8% | viability, T/C [14] 49.6% | viability, T/C [15] 55% | viability, T/C [32] 53.3% | viability, T/C [33] 44.8% | viability, T/C [34] 37.4% | viability, T/C [35] 34.9%
455 nM: IC50 [5]
1060 nM: IC50 [4]
1490 nM: IC50 [1]
1360 nM: IC50 [2]
892 nM: IC50 [3]

CC(C)c1c(-c2ccccc2)nc2c(C#N)c[nH]n2c1=O + Cc1ccccc1N=Nc1ccc(NC(=O)c2ccnn2C)c(C)c1
inactive: viability, T/C [6] 78.9% | viability, T/C [7] 84.9% | viability, T/C [16] 83.2% | viability, T/C [17] 81.8% | viability, T/C [18] 80.2% | viability, T/C [19] 84.2% | viability, T/C [8] 87.7% | viability, T/C [9] 88.5% | viability, T/C [20] 89.7% | viability, T/C [21] 85.9% | viability, T/C [22] 82.8% | viability, T/C [23] 89.5% | viability, T/C [10] 80.1% | viability, T/C [11] 74.6% | viability, T/C [24] 86.8% | viability, T/C [25] 78.1% | viability, T/C [26] 76.7% | viability, T/C [27] 77.5% | viability, T/C [12] 77.2% | viability, T/C [13] 79.2% | viability, T/C [28] 79.6% | viability, T/C [29] 76.8% | viability, T/C [30] 72.7% | viability, T/C [31] 78.1% | viability, T/C [14] 80.2% | viability, T/C [15] 81.7% | viability, T/C [32] 74.3% | viability, T/C [33] 81% | viability, T/C [34] 71.8% | viability, T/C [35] 74.1%
> 10000 nM: IC50 [1] | IC50 [2] | IC50 [3] | IC50 [4] | IC50 [5]

COc1cc(Nc2ncc3c(n2)-c2ccc(Cl)cc2C(c2c(F)cccc2OC)=NC3)ccc1C(=O)O
2480 nM and 3420 nM and 1500 nM: IC50 (curve of compound)
inactive: viability, T/C (compound 0.0316 µM) 80.4% and 74.9% and 66.8% | viability, T/C (compound 0.1 µM) 75.4% and 73.6% and 76.6% | viability, T/C (compound 0.316 µM) 72.2% and 71.5% and 58.7% | viability, T/C (compound 1 µM) 55.6% and 60.1% and 52.7% | viability, T/C (compound 3.16 µM) 50% and 51.6% and 46% | viability, T/C (compound 10 µM) 38.7% and 36% and 35.6%
